Patent publication US6440440B1, “Biocidal benzylbiphenyl derivatives” (priority 1998, dated 2002)

Tests used:
Type in all cases: cell-based
[1] = system: Pseudomonas aeruginosa; assay: Primary bacteria screening; design: key: score: 3 = complete inhibition of growth, 2 = growth partially controlled; settings: test compound concentration 500 μMol in tryptose broth agar, 27° C.
Procedure: (§1) The stock solutions with the test compounds were pipetted into multiwell plates and mixed with warm tryptose broth agar (2.6%) in order to reach a test compound concentration of 500 μMol. The medium was allowed to cool and subsequently inoculated with the bacteria. Wells were placed in an incubator at 27° C. and a relative humidity of 70%. After sufficient growth of the untreated cultures, the test was evaluated.
(§2) 3: complete inhibition of bacterial growth
(§3) 2: bacterial growth partially controlled

[2] = system: Escherichia coli; assay: Primary bacteria screening; design: key: score: 3 = complete inhibition of growth, 2 = growth partially controlled; settings: test compound concentration 500 μMol in tryptose broth agar, 27° C.
Procedure: as §1, §2, §3

[3] = system: Sporobolomyces roseus; assay: Screening against yeasts; design: key: 3 = complete inhibition of growth, 2 = growth partially controlled; settings: test compound concentration 500 μmol
Procedure: as §1, §2, §3
(§4) A number of compounds of formula (I) were also tested in a screening against certain The test conditions are the same as described in biological example C.1. The concentration of the test compound was also 500 μmol, and the scoring system used was also the same.
Sporobolomyces roseus (21)

[4] = system: Debaryomyces hansenii; assay: Screening against yeasts; design: key: 3 = complete inhibition of growth, 2 = growth partially controlled; settings: test compound concentration 500 μM
Procedure: as §1, §2, §3, §4
Debaryomyces hansenii (19)

[5] = system: Rhodotorula rubra; assay: Screening against yeasts; design: key: 3 = complete inhibition of growth, 2 = growth partially controlled; settings: test compound concentration 500 μmol
Procedure: as §1, §2, §3, §4

| Compound | P. aeruginosa (growth inhibition score) [1] | E. coli (growth inhibition score) [2] | Test yeast (21) Sporobolomyces roseus (score) [3] | Test yeast (19) Debaryomyces hansenii (score) [4] | Test yeast (20) Rhodotorula rubra (score) [5] |
| --- | --- | --- | --- | --- | --- |
| Cl.Cl.Fc1ccc(-c2ccc(C(c3ccc(F)cc3)C3CCN(C4CCNCC4)CC3)cc2)cc1 (stereo not drawn) [compound 6] | 3 | 3 | 3 | 3 | 3 |
| Cc1ccc(C(c2ccc(-c3ccc(F)cc3)cc2)C2CCN(C3CCNCC3)CC2)cc1.Cl.Cl (stereo not drawn) [compound 9] | 2 | 3 | 3 | 3 | 3 |
| Cl.Fc1ccc(C(c2ccc(-c3ccccc3)cc2)C2CCN(C3CCNCC3)CC2)cc1 (stereo not drawn) [compound 11] | 3 | 3 | 3 | 3 | 1 |
| Br.Br.COc1ccc(C(c2ccc(-c3ccccc3)cc2)C2CCN(C3CCNCC3)CC2)cc1 (stereo not drawn) [compound 12] | 2 | 3 | 3 | 3 | 2 |
| Cl.Cl.Oc1ccc(C(c2ccc(-c3ccccc3)cc2)C2CCN(C3CCNCC3)CC2)cc1 (stereo not drawn) [compound 13] | 3 | 3 | 3 | 3 | 1 |
| NCCCN1CCC(N2CCC(C(c3ccccc3)c3ccc(-c4ccccc4)cc3)CC2)CC1 (stereo not drawn) [compound 16] | 3 | 3 | 3 | 3 | 3 |
| CCN1CCC(N2CCC(C(c3ccccc3)c3ccc(-c4ccccc4)cc3)CC2)CC1.Cl.Cl (stereo not drawn) [compound 18] | 2 | 1 | 3 | 3 | 1 |
| NCCC1CCN(CC=C(c2ccccc2)c2ccc(-c3ccccc3)cc2)CC1.O=C(O)C(=O)O.O=C(O)C(=O)O [compound 25] | 1 | 3 | 3 | 3 | 1 |
| NCC1CCN(CC=C(c2ccccc2)c2ccc(-c3ccccc3)cc2)CC1.O=C(O)C(=O)O.O=C(O)C(=O)O [compound 26] | 1 | 3 | 3 | 3 | 2 |
| NC1CCN(CC=C(c2ccccc2)c2ccc(-c3ccccc3)cc2)CC1.O=C(O)C(=O)O.O=C(O)C(=O)O [compound 27] | 1 | 3 | 3 | 3 | 1 |
| Cl.Cl.NCCC1CCN(CCC(c2ccccc2)c2ccc(-c3ccccc3)cc2)CC1 (stereo not drawn) [compound 29] | 1 | 3 | 3 | 3 | 3 |
| Cl.Cl.NCC1CCN(CCC(c2ccccc2)c2ccc(-c3ccccc3)cc2)CC1 (stereo not drawn) [compound 30] | 1 | 3 | 3 | 3 | 1 |
| Cl.Cl.NC1CCN(CCC(c2ccccc2)c2ccc(-c3ccccc3)cc2)CC1 (stereo not drawn) [compound 31] | 1 | 3 | 3 | 3 | 1 |
| CN(C)CC1CCN(CCC(c2ccccc2)c2ccc(-c3ccccc3)cc2)CC1 (stereo not drawn) [compound 33] | 1 | 1 | 3 | 3 | 3 |
| CN(C)CCNCCC(c1ccccc1)c1ccc(-c2ccccc2)cc1 (stereo not drawn) [compound 39] | 1 | 3 | 3 | 3 | 1 |
| CN(C)CCCN1CCC(C(c2ccccc2)c2ccc(-c3ccccc3)cc2)CC1.Cl.Cl (stereo not drawn) [compound 43] | 2 | 1 | 3 | 3 | 2 |
| Cl.Cl.Cl.c1ccc(-c2ccc(C(c3ccccc3)N3CCN(C4CCNCC4)CC3)cc2)cc1 (stereo not drawn) [compound 46] | 3 | 1 | 3 | 3 | 1 |
| c1ccc(-c2ccc(C(NC3CCN(C4CCNCC4)CC3)c3ccccc3)cc2)cc1 (stereo not drawn) [compound 47] | 1 | 3 | 3 | 3 | 3 |
| Cl.Cl.Cl.NC1CCN(C2CCN(C(c3ccccc3)c3ccc(-c4ccccc4)cc3)CC2)CC1 (stereo not drawn) [compound 49] | 1 | 3 | 3 | 3 | 2 |
| Br.Br.c1ccc(-c2ccc(C(CCNC3CCNCC3)c3ccccc3)cc2)cc1 (stereo not drawn) [compound 50] | 1 | 3 | 3 | 3 | 3 |
| Br.Br.CN(CCC(c1ccccc1)c1ccc(-c2ccccc2)cc1)C1CCNCC1 (stereo not drawn) [compound 51] | 1 | 3 | 3 | 3 | 3 |
